Test results as given in US5196427A, “3-aryl-4(3H) quinazolinone CCK antagonists and pharmaceutical formulations thereof” (Eli Lilly and Company, priority 1991, dated 1993).
Like-named read-outs stand apart in the source and are kept apart here.

Key:
[1] = molecular target: T1, peripheral type CCK receptors in rat pancreas (Rattus norvegicus, UniProt P30551); experiment: Binding to peripheral type CCK receptors in rat pancreas (3H-L364,718); conditions: read-out: Pancreas % inhibition in binding assay
T1 construct: from tissue; host or cells: pancreas membranes of male Sprague-Dawley rats
T1 sequence (P30551 1-444): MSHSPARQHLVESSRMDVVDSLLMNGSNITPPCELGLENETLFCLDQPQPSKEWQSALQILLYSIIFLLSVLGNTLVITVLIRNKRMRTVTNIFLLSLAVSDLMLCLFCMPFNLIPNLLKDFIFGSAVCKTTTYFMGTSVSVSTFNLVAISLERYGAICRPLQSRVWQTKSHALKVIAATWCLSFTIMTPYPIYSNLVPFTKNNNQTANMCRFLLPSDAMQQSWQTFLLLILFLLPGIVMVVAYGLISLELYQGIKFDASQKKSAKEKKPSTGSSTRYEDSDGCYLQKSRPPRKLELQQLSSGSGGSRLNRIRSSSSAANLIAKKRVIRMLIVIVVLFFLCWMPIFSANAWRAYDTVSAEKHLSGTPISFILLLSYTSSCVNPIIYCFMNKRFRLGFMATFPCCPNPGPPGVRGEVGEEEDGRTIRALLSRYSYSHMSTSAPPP
Description: Binding to peripheral type CCK receptors in rat pancreas was done according to the method of Chang et al. (Mol. Pharmacol. 30: 212-217, 1986) using ^3 H-L364, 718. Pancreas was obtained from male & Sprague-Dawley rats, 150-200 g, after decapitation, and dissected free from adipose and connective tissue. The tissue was homogenized in 30 volumes of 50 mM Tris buffer, pH 7.4 and centrifuged at 40,000 g for 10 min. The tissue pellet was washed by resuspension and centrifugation as described above. The final pellet was suspended in 500 volumes of assay buffer (50 mM Tris buffer, pH 7.4, 5 mM MgC2, 0.14 mg/ml bacitracin, and 5 mM dithiothreitol) to give a protein concentration of 30-60 μg/200 μl. Reagent volumes for the assay were the same as those used for CCK binding to brain membranes. […] The samples were incubated 1 hour at room temperature and then filtered as described for the CCK-brain receptor. Scintillation cocktail was added to the filters which were counted for radioactivity using a Micromedic Taurus automatic liquid scintillation counter.
Compound samples were prepared and IC-50 values were determined as described for the CCK-brain experiments. Non-specific binding was that amount left bound to the filters after adding 100 nM L-364,718.

Brain CCK receptor = molecular target: T2, Brain CCK receptor (Mus musculus, UniProt P56481); experiment: Brain CCK receptor binding (mouse brain membranes, 125I-CCK-8 sulfate); conditions: for IC50: mouse brain membranes, Mean ± SEM, n = 3, values without SEM n = 1, read-out: Brain IC50
T2 construct: from tissue; host or cells: forebrain membranes of male CF-1 mice
T2 sequence (P56481 1-453): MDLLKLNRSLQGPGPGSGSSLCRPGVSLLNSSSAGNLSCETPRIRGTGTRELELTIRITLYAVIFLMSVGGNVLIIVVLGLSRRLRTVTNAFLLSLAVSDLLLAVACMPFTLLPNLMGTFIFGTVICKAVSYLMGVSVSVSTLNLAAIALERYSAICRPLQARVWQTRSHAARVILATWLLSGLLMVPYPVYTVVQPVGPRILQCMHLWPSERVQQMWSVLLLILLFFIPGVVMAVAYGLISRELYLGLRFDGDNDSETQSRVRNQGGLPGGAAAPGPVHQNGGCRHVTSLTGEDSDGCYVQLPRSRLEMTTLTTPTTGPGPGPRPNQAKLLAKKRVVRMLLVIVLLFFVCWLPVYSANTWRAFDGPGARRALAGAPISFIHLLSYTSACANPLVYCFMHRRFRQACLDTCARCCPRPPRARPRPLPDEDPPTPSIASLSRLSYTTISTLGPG
Description: Brain CCK receptor binding was performed using mouse brain membranes according to the method of Chang and Lotti (Proc. Natl. Acad. Sci. 83: 4923-4926, 1986). Male CF-1 mice, 23-25 g were sacrificed by cervical dislocation, the forebrain removed and placed in ice cold 50 mM Tris buffer, pH 7.4. The tissue was homogenized in 100 volumes of the Tris buffer with a Brinkman Polytron or Tekmar Tissumizer and then centrifuged at 40,000 g for 10 min. Pellets were resuspended in Tris buffer, centrifuged as above and then resuspended in 100 volumes of assay buffer, pH 6.5 (20 mM N-2-hydroxyethyl-piperazine-N'-2-ethane sulfonic acid (HEPES), 1 mM ethylene glycol bis(2-aminoethyl ether-N,N,N',N'-tetraaceticacid) (EGTA), 5 mM MgCl2, 130 mM NaCl, and 0.25 mg/ml bacitracin). The binding assay consisted of 50 μL of compound (or buffer for total binding), 50 μL of ^125 I-CCK-8 sulfate (20 pM) (Amersham IM-159), 200 μL of assay buffer and 200 μL of homogenate (80-120 μg protein). The samples were incubated at room temperature (25°) for 2 hours, and they were then filtered through GF/B glass fiber filters (soaked in wash buffer for 2 hours before use) using a 48 well Brandel cell harvester designed for receptor binding. The filters were washed twice with 3 ml of 50 mM Tris buffer, pH 7.4, containing 0.01% BSA and then counted for radioactivity in plastic tubes with a Micromedic 10/600 automatic gamma counter.
Compounds were dissolved in dimethyl sulfoxide (DMSO) at a concentration of 10 mM and then further diluted with assay buffer. […] IC-50 values of displacement curves were determined using 7 concentrations of compound and were calculated using the ALLFIT computer program of DeLean, Munson and Rodbard (Am. J. Physiol. 235: E97-E102, 1978). Non-specific binding was determined as the displacement of the radioligand by 100 nM CCK-8 sulfate.

Gastrin receptor = molecular target: T3, Gastrin receptor (Cavia porcellus, UniProt H0VZC5); experiment: Gastrin binding to guinea pig stomach mucosal membranes (125I-gastrin I); conditions: Mean ± SEM, n = 3
T3 construct: from tissue; host or cells: stomach fundus mucosal membranes of male Hartley guinea pigs
T3 sequence (H0VZC5 1-426): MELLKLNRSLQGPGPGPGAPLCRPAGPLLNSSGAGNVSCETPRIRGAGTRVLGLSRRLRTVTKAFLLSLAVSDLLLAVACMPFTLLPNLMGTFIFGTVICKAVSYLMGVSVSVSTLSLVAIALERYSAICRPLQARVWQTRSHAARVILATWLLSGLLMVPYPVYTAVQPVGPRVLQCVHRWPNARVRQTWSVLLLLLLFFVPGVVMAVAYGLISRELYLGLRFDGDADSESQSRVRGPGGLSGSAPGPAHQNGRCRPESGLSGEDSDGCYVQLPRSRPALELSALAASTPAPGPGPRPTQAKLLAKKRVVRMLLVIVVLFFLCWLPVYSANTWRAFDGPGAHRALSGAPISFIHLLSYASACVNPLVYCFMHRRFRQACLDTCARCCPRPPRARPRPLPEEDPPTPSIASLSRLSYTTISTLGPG
Description: The method used for gastrin binding to guinea pig stomach mucosal membranes was similar to that described by Takeuchi, Speir and Johnson (Am. J. Physiol. 237(3): E284-E294, 1979). Guinea pig stomach […] was obtained from male Hartley guinea pigs, 300-350 g, and the mucosa was scraped off with a glass The mucosa was homogenized in 50 mM Tris buffer, pH 7.4, containing 1 mM phenylmethanesulfonyl fluoride using a Dounce glass homogenizer, and the suspension was centrifuged at 40,000 g for 10 min. The resulting pellet was resuspended and centrifuged once more, the final pellet was then suspended in 100 ml assay buffer per 1 guinea pig stomach to give a protein concentration of 200-300 μg/200 μl. The assay buffer consisted of 50 mM Tris buffer, pH 7.4, 5 mM MgC2, 0.14 mg/ml bacitracin, and 1 μg/ml each of leupeptin, chymostatin, aprotinin and pepstatin. Reagent volumes for the assay were the same as those used for CCK binding to brain membranes. The radioactive ligand was 20 pM ^125 I-gastrin I, from DuPont NEN (NEX-176). The samples were incubated 3 hours at room temperature and filtered and counted as described for CCK binding to brain membranes. Compound samples were prepared and IC-50 values were determined as described for the CCK-brain receptor binding. Non-specific binding was determined using 100 nM gastrin I (human synthetic from Sigma Chemical Co.).

SMILES	inhibition at 10 µM [1] [%]	IC50 (Brain CCK receptor) [nM]	inhibition at 10 µM ([1]; rat pancreas, 10 μM) [%]	IC50 (Gastrin receptor) [nM]	inhibition at 10 µM (Brain CCK receptor; read-out: Brain % inhibition in binding assay, mouse brain membranes, 10 μM) [%]
O=c1c2ccccc2nc(CCc2c[nH]c3ccccc23)n1-c1ccccc1 [Example 1, 2-[2-(3-indolyl)ethyl]-3-phenyl-4-(3H)quinazolinone]	37	670 ± 150	–	–	–
CC(C)Oc1cccc(-n2c(CCc3c[nH]c4ccc(Br)cc34)nc3ccccc3c2=O)c1 [Example 4, 2-[2-(5-Bromoindol-3-yl)ethyl]-3-(3-isopropoxyphenyl)-4-quinazolinone]	–	–	-1.4	–	–
O=c1c2ccccc2nc(CCc2c[nH]c3ccccc23)n1-c1cccc(F)c1 [Example 12]	11	730 ± 170	–	–	–
O=c1c2ccccc2nc(CCc2c[nH]c3ccccc23)n1-c1cccc(Cl)c1 [Example 13]	17	690 ± 160	–	–	–
Cc1cccc(-n2c(CCc3c[nH]c4ccccc34)nc3ccccc3c2=O)c1 [Example 14]	0.6	150 ± 10	–	–	–
O=c1c2ccccc2nc(CCc2c[nH]c3ccccc23)n1-c1cccc(Br)c1 [Example 15]	–	370 ± 30	-5.7	–	–
O=c1c2ccccc2nc(CCc2c[nH]c3ccc(Cl)cc23)n1-c1cccc(Br)c1 [Example 16]	–	190	2	–	–
COc1cccc(-n2c(CCc3c[nH]c4ccccc34)nc3ccccc3c2=O)c1 [Example 17]	16	160 ± 30	–	–	–
COc1cccc(-n2c(CCc3c[nH]c4ccc(Br)cc34)nc3ccccc3c2=O)c1 [Example 20]	–	–	5.3	–	–
CCOc1cccc(-n2c(CCc3c[nH]c4ccc(Br)cc34)nc3ccccc3c2=O)c1 [Example 23]	–	34 ± 7	-14	–	–
CCc1cccc(-n2c(CCc3c[nH]c4ccccc34)nc3ccccc3c2=O)c1 [Example 28]	2.6	72 ± 1	–	–	–
CCc1cccc(-n2c(CCc3c[nH]c4ccc(Br)cc34)nc3ccccc3c2=O)c1 [Example 29]	–	46 ± 10	-4.5	1100 ± 200	–
CCc1cccc(-n2c(CCc3c[nH]c4ccc(Cl)cc34)nc3ccccc3c2=O)c1 [Example 30]	–	30	-9.1	–	–
CCc1cccc(-n2c(CCc3c[nH]c4ccc(OC)cc34)nc3ccccc3c2=O)c1 [Example 31]	–	22	11	–	–
COc1ccc(-n2c(CCc3c[nH]c4ccc(Br)cc34)nc3ccccc3c2=O)cc1 [Example 52]	–	31 ± 6	0.3	–	–
O=c1c2ccccc2nc(CCCc2c[nH]c3ccccc23)n1-c1ccccc1 [Example 62]	–	–	11	–	20
CCc1cccc(-n2c(CC(C)c3c[nH]c4ccc(Br)cc34)nc3ccccc3c2=O)c1 (stereo not drawn) [Example 64]	–	100 ± 10	–	1600 ± 100	–
